Measured values from US20130280269A1, “Manipulation of HSP70 and IRE1Alpha Protein Interactions” (National University of Ireland, priority 2010, published 2013).

Legend:
PC12 cells [1] = experiment: Loss of mitochondrial membrane potential (ΔΨm), TMRE staining and flow cytometry; assay type: cell-based, Rat; conditions: 48 h, thapsigargin 0.25 μM
Experimental: (§1) FIG. 2. Hsp72 prevents ER stress-induced loss of mitochondrial membrane potential and cytochrome c release. (A) The control (Neo) and Hsp72 expressing (Hsp72) PC12 cells were either untreated (Control) or treated with (0.25 μM) Tg for the indicated time and mitochondrial membrane potential was assessed by TRME staining and flow cytometry. A representative image of three independent experiments is shown. (B) The control (Neo) and Hsp72 expressing (Hsp72) PC12 cells were treated (0.25 μM) Tg for indicated time points. Following treatment cells were incubated with TMRE (100 nM). Mitochondrial membrane potential was monitored by measuring the fluorescence intensity at 582 nm (FL2). Average and error bars represent mean±SD from three independent experiments. (C) The control (Neo) and Hsp72 expressing (Hsp72) PC12 cells were treated with (0.25 μM) Tg for the indicated time. Cytosolic extracts were prepared as described in materials and methods and resolved by SDS-PAGE followed by western blotting using antibodies against Cytochrome c and β-actin.
The effect of Hsp72 on the dissipation of ΔΨm and release of cytochrome c to the cytosol upon exposure to ER stress stimuli was evaluated. To quantify ΔΨm, probe tetramethylrhodamine ethyl ester (TMRE, Molecular Probes), a potentiometric fluorescent dye that incorporates into mitochondria in a ΔΨm-dependent manner, was used. Cells were trypsinized and then were either left untreated or treated with 0.25 μM thapsigargin. The cells were then incubated with TMRE for 30 min in the dark and analyzed by flow cytometry using a FACSCalibur instrument. […] The expression of Hsp72 inhibited the loss of ΔΨm (FIG. 2A). At 48 h, loss of ΔΨm was detected in 80-90% of Neo cells treated with thapsigargin or tunicamycin, respectively (FIG. 2B).

PC12 cells [2] = experiment: Release of cytochrome c into the cytosol, western blot of cytosolic extracts; assay type: cell-based, Rat; conditions: 0.25 μM Tg, 24 h
Experimental: as §1
To further study the involvement of mitochondria in ER stress-induced cell death, the release of cytochrome c into the cytosol was assessed. […]

[3] = biological target: T1, wild-type Hsp72 (inducible form of Hsp70), stably expressed in PC12 cells (Homo sapiens (Human), UniProt P0DMV8 2-641, limits assumed); experiment: co-immunoprecipitation with HA-agarose from Hsp72-expressing PC12 cells, western blot (FIG. 5C)
T1 construct: Expressed from a plasmid (gift of Dr. Tomomi Gotoh) in rat PC12 cells and tested in cell lysates by co-immunoprecipitation; also called Hsp72 WT; inducible Hsp70
Experimental: FIG. 5. Hsp72 forms a protein complex with IRE1α, and ATPase domain of HSP72 is critical for IRE1α binding. (A) Schematic diagram for IRE1α structure domains and expression constructs. (B) Schematic diagram for Hsp72 structure domains and expression constructs. (C) Hsp72 expressing PC12 cells (Hsp2) were transfected with empty vector (EV) or expression vectors for IRE1α FL-HA or IRE1α ΔC-HA. After 24 h, cells were either left untreated (UT) or treated with (0.25 μM) Tg for 12 h and then the co-precipitation of Hsp72 with IRE1α FL-HA or IRE1α ΔC-HA was evaluated by IP and western blot. (D) PC12 cells expressing the indicated Hsp72 constructs were transfected with IRE1α FL-HA. […] Co-precipitation of wild-type, ΔATPase and ΔEEVD mutant of Hsp72 with IRE1α FL-HA was evaluated by IP and western blot. […] After 48 hr, IRE1α FL-HA was immunoprecipitated and its association with endogenous Hsp72 was assessed by western blot. (F) Endogenous Hsp72 was immunoprecipitated from HEK 293 cells transiently transfected with IRE1α FL-HA expression vector or empty vector (EV), and its association with IRE1α was determined by western blot analysis. […]
Interaction of Hsp72-IRE1α was determined by co-immunoprecipitation assays. […] Protein complexes were extracted by boiling the beads with 2× lane marker buffer and analysed by western blotting as described above using the primary antibody IRE1α (Cell Signalling Cat#3294S). […]

T1 sequence (P0DMV8 2-641 limits assumed): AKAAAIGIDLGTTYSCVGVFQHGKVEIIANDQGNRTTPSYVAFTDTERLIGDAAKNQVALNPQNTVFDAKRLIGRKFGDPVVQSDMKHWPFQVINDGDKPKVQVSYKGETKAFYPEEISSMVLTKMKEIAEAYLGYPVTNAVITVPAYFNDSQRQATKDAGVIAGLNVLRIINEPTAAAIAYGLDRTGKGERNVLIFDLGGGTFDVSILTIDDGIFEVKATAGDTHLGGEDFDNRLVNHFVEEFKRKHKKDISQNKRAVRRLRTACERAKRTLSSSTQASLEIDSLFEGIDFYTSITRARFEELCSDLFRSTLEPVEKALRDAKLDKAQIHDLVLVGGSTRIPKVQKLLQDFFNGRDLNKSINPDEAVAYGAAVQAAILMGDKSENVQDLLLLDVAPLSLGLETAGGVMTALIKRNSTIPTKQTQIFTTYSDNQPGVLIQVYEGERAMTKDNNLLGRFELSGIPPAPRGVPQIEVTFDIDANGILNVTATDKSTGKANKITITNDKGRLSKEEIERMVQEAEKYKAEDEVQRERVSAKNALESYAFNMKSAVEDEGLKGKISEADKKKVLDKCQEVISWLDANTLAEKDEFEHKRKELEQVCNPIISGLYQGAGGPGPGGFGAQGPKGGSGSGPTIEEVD

Row | Molecule | loss of ΔΨm, cells (PC12 cells [1]; Hsp72 expressing PC12 cells) [%] | loss of ΔΨm, cells (PC12 cells [1]; control (Neo) PC12 cells) [%] | release of cytochrome c induced by thapsigargin (PC12 cells [2]; Hsp72 expressing PC12 cells, compared with Neo cells) | release of cytochrome c from mitochondria to the cytoplasm (PC12 cells [2]; control (Neo) PC12 cells) | binding result [3]
1 | tunicamycin | 50 | 90 | – | – | –
2 | C/C=C(/C)C(=O)O[C@H]1C(C)=C2[C@H]([C@@H]1OC(=O)CCCCCCC)[C@@](C)(OC(C)=O)C[C@H](OC(=O)CCC)[C@@]1(O)[C@H]2OC(=O)[C@@]1(C)O [thapsigargin] | 50 | 80 | significantly reduced | triggered release of cytochrome c | –
3 | IRE1α ΔC-HA (enzyme, HA-tagged IRE1α lacking the cytosolic C-terminal region; also called IRE1α DC-HA; not shown: HA tag) IFGSTSTVTLPETLLFVSTLDGSLHAVSKRTGSIKWTLKEDPVLQVPTHVEEPAFLPDPNDGSLYTLGSKNNEGLTKLPFTIPELVQASPCRSSDGILYMGKKQDIWYVIDLLTGEKQQTLSSAFADSLCPSTSLLYLGRTEYTITMYDTKTRELRWNATYFDYAASLPEDDVDYKMSHFVSNGDGLVVTVDSESGDVLWIQNYASPVVAFYVWQREGLRKVMHINVAVETLRYLTFMSGEVGRITKWKYPFPKETEAKSKLTPTLYVGKYSTSLYASPSMVHEGVAVVPRGSTLPLLEGPQTDGVTIGDKGECVITPSTDVKFDPGLKSKNKLNYLRNYWLLIGHHETPLSASTKMLERFPNNLPKHRENVIPADSEKKSFEEVINLVDQTSENAPTTVSRDVEEKPAHAPARPEAPVDSMLKDMATIILSTFLLIGWVAFIITYPLSMHQQQQLQHQQFQKELEKIQLLQQQQQQLPFH | – | – | – | – | no binding
